From US20040224958A1, “Pyridopyrimidinone derivatives for treatment of neurodegenerative disease” (priority 2000, published 2004)
Like-named read-outs stand apart in the source and are kept apart here.

Columns and labels:
cdk4/D = cdk4/D (Homo sapiens, UniProt P11802); assay: Cyclin-Dependent Kinase 4 (cdk4) Assay; format: biochemical
Cdk5/p25 = Cdk5/p25 (Homo sapiens, UniProt Q00535); assay: Cyclin-Dependent Kinase 5 (cdk5) Assay; format: biochemical
Procedure: Cyclin-Dependent Kinase 5 (cdk5) Assay
Enzyme assays for IC50 determinations and kinetic evaluation were performed in 96-well filter plates (Millipore MAPH NOB 10). […] All components except histone and ATP were added to wells, and the plate was placed on a shaker for 5 minutes. The reaction was started by adding histone and [^32P]ATP, and the plate was shaken at 30° C. for 45 minutes. The reaction was terminated by addition of 0.1 mL of 150 mM phosphoric acid. The plate was kept at 4° C. for 30 minutes to allow substrate to precipitate. The wells were then washed three times with 0.2 mL of 75 mM phosphoric acid and ^32P incorporation was determined with a beta plate counter (Wallac Inc, Gaithersburg, Md.).

cdk2/cyclinE = cdk2/cyclinE (Homo sapiens, UniProt P24941); assay: Cyclin-Dependent Kinase Assay cdk2/cyclinE
cdk2/cyclinA = cdk2/cyclinA (Homo sapiens, UniProt P24941); assay: Cyclin-Dependent Kinase Assay cdk2/cyclinA
cdc2/cyclinB = cdc2/cyclinB (Homo sapiens, UniProt P06493); assay: Cyclin-Dependent Kinase Assay cdc2/cyclinB
Sequence of cdc2/cyclinB (P06493 whole entry): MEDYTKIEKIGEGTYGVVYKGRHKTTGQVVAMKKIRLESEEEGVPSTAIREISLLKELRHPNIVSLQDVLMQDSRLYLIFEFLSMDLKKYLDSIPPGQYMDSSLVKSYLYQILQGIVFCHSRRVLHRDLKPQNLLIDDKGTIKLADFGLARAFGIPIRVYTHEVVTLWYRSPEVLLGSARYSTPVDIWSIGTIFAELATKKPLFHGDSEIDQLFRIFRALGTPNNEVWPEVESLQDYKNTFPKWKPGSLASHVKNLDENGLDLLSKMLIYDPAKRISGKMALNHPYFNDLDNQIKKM
Sequence of cdc2/cyclinB (P14635 whole entry, further chain): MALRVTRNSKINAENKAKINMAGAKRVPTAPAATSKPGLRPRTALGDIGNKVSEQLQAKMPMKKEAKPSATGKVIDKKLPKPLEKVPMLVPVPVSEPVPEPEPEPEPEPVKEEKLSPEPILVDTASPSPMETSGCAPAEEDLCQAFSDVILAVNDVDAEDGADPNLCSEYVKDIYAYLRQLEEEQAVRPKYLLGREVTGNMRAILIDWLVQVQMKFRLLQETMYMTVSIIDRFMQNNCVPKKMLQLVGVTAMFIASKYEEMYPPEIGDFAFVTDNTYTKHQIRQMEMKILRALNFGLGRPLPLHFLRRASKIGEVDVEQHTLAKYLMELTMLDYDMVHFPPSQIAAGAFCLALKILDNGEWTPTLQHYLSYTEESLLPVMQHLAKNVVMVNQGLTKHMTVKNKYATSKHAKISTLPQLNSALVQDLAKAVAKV

Sequence of cdk4/D (P11802 whole entry): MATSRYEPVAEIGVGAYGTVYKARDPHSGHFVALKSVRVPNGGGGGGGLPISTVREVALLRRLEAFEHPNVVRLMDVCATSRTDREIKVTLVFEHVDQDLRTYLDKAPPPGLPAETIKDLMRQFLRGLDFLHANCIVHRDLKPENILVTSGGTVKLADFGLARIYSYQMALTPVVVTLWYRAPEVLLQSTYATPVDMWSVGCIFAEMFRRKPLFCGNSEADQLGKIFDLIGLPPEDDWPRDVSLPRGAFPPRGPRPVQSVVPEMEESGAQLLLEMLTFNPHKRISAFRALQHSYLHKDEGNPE
Sequence of cdk4/D (P24385 whole entry, further chain): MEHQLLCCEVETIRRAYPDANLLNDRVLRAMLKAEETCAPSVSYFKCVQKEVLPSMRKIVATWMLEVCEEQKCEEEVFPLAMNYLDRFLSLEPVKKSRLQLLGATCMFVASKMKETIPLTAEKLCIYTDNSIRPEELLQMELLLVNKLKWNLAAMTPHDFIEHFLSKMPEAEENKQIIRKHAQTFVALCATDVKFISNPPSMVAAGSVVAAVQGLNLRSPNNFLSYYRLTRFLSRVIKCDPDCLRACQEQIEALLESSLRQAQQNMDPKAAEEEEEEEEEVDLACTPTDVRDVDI

IC50 (cdk4/D; Table 3, read-out: Cdk4 IC50) [nM] | IC50 (Cdk5/p25; Table 1) [nM] | IC50 (Cdk5/p25; Table 3) [nM] | melting point [°C] | IC50 (cdk2/cyclinE; Cdk2/E IC50, Table 3) [nM] | IC50 (cdk2/cyclinA; Cdk2/A IC50, Table 3) [nM] | IC50 (cdk4/D; Table 1, read-out: cdk4/D IC50) [nM] | IC50 (cdk2/cyclinE; cdk2/E IC50, Table 1) [nM] | IC50 (cdk2/cyclinA; cdk2/A IC50, Table 1) [nM] | IC50 (cdc2/cyclinB) [nM] | SMILES
1240 | 53 | 32 | 215 to 217 | 560 | 421 |  |  |  |  | CCn1c(=O)ccc2cnc(Nc3ccc(F)cc3)nc21 [Example 88, 8-Ethyl-2-(4-fluorophenylamino)-8H-pyrido[2,3-d]pyrimidin-7-one]
 | 19 |  | 105 to 107 |  |  | 6.6 | 109 | 42.5 |  | CCN(CC)CCOc1ccc(Nc2ncc3ccc(=O)n(C4CCCC4)c3n2)cc1 [Example 117, 8-Cyclopentyl-2-[4-(2-diethylamino-ethoxy)-phenylamino]-8H-pyrido[2,3-d]pyrimidin-7-one]
617 |  | 9.8 | 153 to 155 | 580 | 120 |  |  |  |  | COc1ccc(Nc2ncc3ccc(=O)n(C(C)C)c3n2)cc1 [Example 111, 8-Isopropyl-2-(4-methoxy-phenylamino)-8H-pyrido[2,3-d]pyrimidin-7-one]
 | 690 |  | 189 to 190 |  |  | 270 | 433 | 711 |  | CC1CCCN(c2ccc(Nc3ncc4ccc(=O)n(C5CCCCC5)c4n3)cc2)C1 (centres unmarked) [Example 175, 8-Cyclohexyl-2-[4-(3-methyl-piperidin-1-yl)-phenylamino]-8H-pyrido[2,3-d]pyrimidin-7-one]
 | 3320 |  | 223 |  |  | 8 | 126 | 205 |  | O=c1ccc2cnc(Nc3ccc(N4CCC(CCCO)CC4)cc3)nc2n1C1CC2CCC1C2 (centres unmarked) [Example 214, 8-Bicyclo[2.2.1]hept-2-yl-2-{4-[4-(3-hydroxy-propyl)-piperidin-1-yl]-phenylamino}-8H-pyrido[2,3-d]pyrimidin-7-one]
 | 336 |  | 254 to 255 |  |  | 153 | 7600 | 580 |  | O=c1ccc2cnc(Nc3ccc(N4CCCCC4)cc3)nc2n1C1CCOCC1 [Example 211, 2-(4-Piperidin-1-yl-phenylamino)-8-(tetrahydro-pyran-4-yl)-8H-pyrido[2,3-d]pyrimidin-7-one]
6250 |  | 21 | 202 to 203 | 760 | 297 |  |  |  |  | CC(C)n1c(=O)ccc2cnc(Nc3cccc([N+](=O)[O-])c3)nc21 [Example 623, 8-Isopropyl-2-(3-nitro-phenylamino)-8H-pyrido[2,3-d]pyrimidin-7-one]
5480 |  | 89 | 244 to 247 | 1680 | 1150 |  |  |  |  | Cn1c(=O)ccc2cnc(Nc3ccccc3)nc21 [Example 61, 8-Methyl-2-phenylamino-8H-pyrido[2,3-d]pyrimidin-7-one]
 | 395 |  | 150 to 151 |  |  | 6.9 |  | 13.6 | 674 | O=c1ccc2cnc(Nc3ccc(N4CCCC(CCCO)C4)cc3)nc2n1C1CC2CCC1C2 (centres unmarked) [Example 236, 8-Bicyclo[2.2.1]hept-2-yl-2-{4-[3-(3-hydroxy-propy)-piperidin-1-yl]-phenylamino}-8H-pyrido[2,3-d]pyrimidin-7-one]
 | 237 |  | 165 to 167 |  |  | 200 | 1300 | 206 |  | CCN(CC)CCOc1ccc(Nc2ncc3ccc(=O)n(-c4ccccc4)c3n2)cc1 [Example 118, 2-[4-(2-Diethylamino-ethoxy)-phenylamino]-8-phenyl-8H-pyrido[2,3-d]pyrimidin-7-one]
255 |  | 15 | > 220 | 221 | 61 |  |  |  |  | CC(C)n1c(=O)ccc2cnc(Nc3ccc(O)cc3)nc21 [Example 624, 8-Isopropyl-2-(4-hydroxy-phenylamino)-8H-pyrido[2,3-]pyrimidin-7-one]
